According to article PMC5322882, “Alterations in cellular pharmacokinetics and pharmacodynamics of elvitegravir in response to ethanol exposure in HIV-1 infected monocytic (U1) cells” (PLoS ONE, 2017):

Key:
[1] = tested on: MDR1; test: In-Cell Western analysis of MDR1 protein expression in U1 cells; assay type: cell-based; conditions: 24 hours; for change in MDR1 expression compared to control (in words): U1 cells; for MDR1 fluorescence signal intensity, mean (Fig 3C): relative response compared to vehicle controls, normalized to β-actin
Protocol: (§1) Detecting low levels of protein expression in native cells using traditional Western blotting can be difficult and therefore some studies successfully used In-Cell Western blotting (ICW) to quantify minor alterations in protein expression. We used manufacturer recommended (LI-COR Biosciences, NE) protocol in this study to perform ICW. U1 cells (0.03x10^6) were plated in sterile 96-well plates and differentiated with 100 nM PMA for 72 hours at 37°C in a humidified incubator while maintaining 5% CO2 air flow. On the day of treatment, each well was flushed with sterile PBS (250 μl) followed by addition of a 250 μl RPMI media containing various combinations of drugs previously mentioned. These plates were incubated for 24 hours prior to fixation. Medium from each well was removed by careful aspiration and cells were immediately fixed by addition of cold (-20°C) methanol (200 μl) followed by incubation of the plate at ambient temperature for 10 minutes with gentle shaking. Following incubation, methanol was carefully removed and wells were gently rinsed thrice with PBS (200 μl). After the last rinse, blocking was done by adding a 150 μl of Li-Cor blocking buffer and incubating the plate at room temperature with gentle shaking for 1.5 hours. Meanwhile, the primary antibodies were diluted in Li-Cor Odyssey blocking buffer using following dilutions: 3A4 (Rabbit Pab, Abcam # ab3572) 1: 200; MRP1 (mouse mab, Millipore # MAB4100) 1:50; MDR1(mouse mab, Millipore # MAB4334) 1:50; β-Actin (Mouse mAb Cell Signaling # 3700) 1:2000; β-Actin (Rabbit mAb Cell Signaling # 4970) 1:200. After blocking, 50 μl of desired antibody added to test wells and incubated overnight at 4°C with gentle shaking. On the following day, wells were washed five times with 200 μl PBS containing Tween-20 (0.1%) for 5 minutes at room temperature with gentle shaking. Secondary antibodies, goat anti-Mouse Mab (Li-Cor # 926–68170) and goat anti-Rabbit Mab (Li-Cor # 827–08365) were diluted in 1:1000 ratio in blocking buffer (0.2% -Tween-20, 0.01% SDS). After the final wash, wells were incubated with 50 μl of secondary antibody mixture for 1 hour in the dark at room temperature. After five washes, plates were scanned using Li-Cor Odyssey® SA and analyzed by using Image Studio V4.0 software (LI-COR Biosciences, NE). Background was subtracted from control wells and target protein signal intensities from triplicate wells were normalized to their respective β-actin intensities. Signal intensities were expressed as percent of relative responses (mean ± standard errors of mean) compared to vehicle controls.

[2] = tested on: HIV-1 replication; test: HIV p24 ELISA in culture medium of U1 cells (HIV replication); assay type: cell-based; conditions: 24 hours; for HIV p24 level in culture media, mean (Fig 2): percentage of vehicle control (100%), EVG 5 μM, COBI 2 μM, ethanol 20 mM; for HIV p24 level in culture media, mean (Fig 5): percentage of vehicle control, MK-571 50 μM, PSC-833 5 μM; for effect on HIV p24 levels compared to control (in words): Fig 5
Protocol: (§2) HIV-infected U937 cell line—the U1 cells were obtained through the NIH AIDS Reagent Program (Germantown, MD). U1 cells were cultured in Roswell Park Memorial Institute (RPMI) 1640 media (Corning Inc, Tewksbury, MA) supplemented with 10% fetal bovine serum (Atlanta biologicals, Atlanta, GA), 1% L-glutamine, nonessential amino acid solution, sodium bicarbonate, and penicillin-streptomycin solution. Cells were plated at 0.9x10^6 cells/well of 6-well plates and were differentiated into macrophages with 100 nM Phorbol 12-myristate 13-acetate (PMA) for 72 hours prior to treatment. On the day of experiment, medium was removed and cells were washed twice with PBS and treated with media containing clinically relevant concentrations of (a) EVG (5 μM), (b) EVG+COBI (2 μM), (c) EVG+ethanol (20 mM), (d) EVG+COBI+ethanol. Ethanol-treated plates were placed in an incubator that humidified with 20 mM ethanol to prevent any loss of ethanol due to evaporation.
(§3) At predetermined time points (0.5, 1, 3, 6, 12, and 24 hours), cells were collected for concentration-time profile experiments and medium was collected for HIV p24 measurement. At each time point, cells were washed twice with PBS and incubated with 400 μL of cold Radioimmunoprecipitation assay (RIPA) buffer for 10 minutes and the cell lysates were collected.
Influence of the combination of drugs on HIV replication was determined by measurement of HIV p24 levels in the cell culture medium. […] The concentration of p24 in the samples was quantitated by comparing with standards’ absorbance values and reported in percentage of control. The vehicle-treated samples were used as control and set as 100%.

[3] = Intracellular elvitegravir concentration-time profile (cellular pharmacokinetics) in U1 cells, LC-MS/MS; assay type: in vitro ADME; conditions: human, intracellular EVG in U1 cells
Protocol: as §2, §3
(§4) A previously reported LC-MS/MS method was used to quantitate EVG in cell lysates, culture medium, and plasma samples used in this study. Calibrants (0.003, 0.006, 0.013, 0.025, 0.05, 0.1, 0.15, 0.25, 0.5, and 1 μM) were prepared by serial dilution approach with the corresponding working solutions. EVG extraction from the calibrants and study samples was performed by adding 3-volumes of cold acetonitrile which contained a 138 nM ritonavir (RTV) as internal standard (IS). All samples were centrifuged at 8000 rpm for 10 minutes at 4°C and clear supernatants were transferred into vails with low-volume inserts for LC-MS/MS analysis. Samples (5 μL) were injected onto a Waters Xterra® MS C18 Column (125Å, 3.5 μ, 4.6 X 50 mm) (Waters Corporation, Milford, MA) attached to a Shimadzu Nexera HPLC system coupled with a tandem mass spectrometer (Triple Quad 5500 from AB SCIEX, Framingham, MA) with electron spray ionization in positive mode. Data was acquired and analyzed with the Analyst software package (ver.1.6.2, AB SCIEX, Framingham, MA). Concentrations were quantified by the Quantitative Analysis module (Analyst ver 1.6.2, AB SCIEX, Framingham, MA) from a standard curve fitted with a linear-regression model with a weighting factor of 1/x^2.
(§5) The concentration-time profiles were analyzed by non-compartmental modeling using Phoenix WinNonlin 6.4 (Certara L.P., Princeton, NJ). Area under the curve (AUCtot) was calculated by the log trapezoidal rule by log-linear regression. The maximum concentration achieved (Cmax) and the time to maximum concentration (Tmax) were determined from the concentration-time profiles. Effect of ethanol on EVG AUCtot and Cmax were compared using unpaired t test with Welch's correction. Tmax values were compared using Wilcoxon rank-sum test. All other data involving more than two groups were compared by one way ANOVA and multiple comparisons were performed by Tukey’s post hoc test. ANOVA data was presented along with multiplicity adjusted p values for each comparison. All the statistical analyses were done by Prism 6 (GraphPad Software, La Jolla, CA). A p-value ≤ 0.05 among treatment groups was considered significant.

[4] = tested on: U1 cells; test: as above; assay type: in vitro ADME; conditions: for cellular EVG concentration, mean: U1 cells
Protocol: as §2, §3, §4, §5

[5] = tested on: CYP3A4; test: In-Cell Western analysis of CYP3A4 protein expression in U1 cells; assay type: cell-based; conditions: 24 hours; for change in CYP3A4 expression compared to control (in words): U1 cells; for CYP3A4 fluorescence signal intensity, mean (Fig 3A): relative response compared to vehicle controls, normalized to β-actin
Protocol: as §1

[6] = tested on: MRP1; test: In-Cell Western analysis of MRP1 protein expression in U1 cells; assay type: cell-based; conditions: 24 hours; for change in MRP1 expression compared to control (in words): U1 cells; for MRP1 fluorescence signal intensity, mean (Fig 3B): relative response compared to vehicle controls, normalized to β-actin
Protocol: as §1

[7] = tested on: U1 cells; test: Intracellular elvitegravir concentration in the presence of MRP1 or MDR1 inhibitors and cobicistat + ethanol; assay type: in vitro ADME; conditions: cells co-treated with EVG+COBI+ethanol (control), 24 hours
Protocol: as §3

[8] = parameters: method as in PMID 10817729; conditions: ethanol 0.7 g/kg with 600 mg of abacavir, 25 male HIV-infected individuals; cited from earlier work

Compound | change in MDR1 expression compared to control (in words) [1] | MDR1 fluorescence signal intensity, mean (Fig 3C) [1] [%] | HIV p24 level in culture media, mean (Fig 2) [2] [%] | change in CYP3A4 expression compared to control (in words) [5] | CYP3A4 fluorescence signal intensity, mean (Fig 3A) [5] [%] | change in MRP1 expression compared to control (in words) [6] | MRP1 fluorescence signal intensity, mean (Fig 3B) [6] [%] | HIV p24 level in culture media, mean (Fig 5) [2] [%] | effect on HIV p24 levels compared to control (in words) ([2]; U1 cells) | further results
COc1cc2c(cc1Cc1cccc(Cl)c1F)c(=O)c(C(=O)O)cn2[C@H](CO)C(C)C [EVG, elvitegravir] | no influence | 91.21 | 70.3 | no change | 104.7 | no effect | 100 |  |  | reduction of HIV p24 levels ([2]; U1 cells, compared to vehicle): 30%; Cmax at 5 μM ([3]; EVG 5 μM, COBI 2 μM, ethanol 20 mM, mean ± SEM): 82 ± 4 µM; Tmax at 5 μM ([3]; median (range)): 12 h; cellular EVG concentration, mean ([4]; 0.5 hours): 41.39 μM/mg of protein; cellular EVG concentration, mean ([4]; 1 hour): 51.13 μM/mg of protein; cellular EVG concentration, mean ([4]; 3 hours): 59.00 μM/mg of protein; cellular EVG concentration, mean ([4]; 6 hours): 66.27 μM/mg of protein; cellular EVG concentration, mean ([4]; 12 hours): 78.01 μM/mg of protein; cellular EVG concentration, mean ([4]; 24 hours): 72.02 μM/mg of protein; AUCtot ([4]; intracellular EVG in PMA-differentiated U1 cells, 0 to 24 hours, EVG 5 μM, COBI 2 μM, ethanol 20 mM, mean ± SEM): 1733 ± 122 μMXh/mg; mean exposure (AUCtot) ([4]; intracellular EVG in U1 cells): 1733 ± 122 µM·h/mg
CCO [EtOH, ethanol] | significant induction | 128 | 135.4 | significant induction | 167.5 | upregulated | 167.2 | 135.4 |  | increase in HIV p24 levels compared to vehicle control ([2]; U1 cells): 35%
CN(C)C(=O)CCSC(SCCC(=O)O)c1cccc(/C=C/c2ccc3ccc(Cl)cc3n2)c1 (centres unmarked) [MK-571] |  |  |  |  |  |  |  | 104.1 | did not show any effect | 
C/C=C/C[C@@H](C)C(=O)[C@H]1C(=O)N[C@@H](C(C)C)C(=O)N(C)CC(=O)N(C)[C@@H](CC(C)C)C(=O)N[C@@H](C(C)C)C(=O)N(C)[C@@H](CC(C)C)C(=O)N[C@@H](C)C(=O)N[C@H](C)C(=O)N(C)[C@@H](CC(C)C)C(=O)N(C)[C@@H](CC(C)C)C(=O)N(C)[C@@H](C(C)C)C(=O)N1C [PSC-833] |  |  |  |  |  |  |  | 98.57 | did not show any effect | effect on intracellular EVG concentration (in words) [7]: no significant effect
Nc1nc(NC2CC2)c2ncn([C@H]3C=C[C@@H](CO)C3)c2n1 [abacavir] |  |  |  |  |  |  |  |  |  | increase in half-life with ethanol consumption [8]: 26%; increase in maximum concentration with ethanol consumption [8]: 15%; increase in total exposure with ethanol consumption [8]: 41%
